# Experiments:
# lambsquarters = assay: Test Example 4: herbicidal effect by soil treatment (Table 19, symbol O); format: in vivo, lambsquarters (Chenopodium album); conditions: amount of applied herbicide 320 g/ha
# Outline: (§1)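 Emulsion of test compound, water-diluted to predetermined amount, sprayed on soil after sowing (seed depth ~1.5 cm, sterilized diluvial soil). Greenhouse, 25–30° C. Effect graded at three weeks post-spray.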
# Japanese bulrush = assay: Test Example 2: herbicidal activity, application during weed generation under submerged conditions (Table 17, symbol B); format: in vivo, Japanese bulrush (Schoenoplectus juncoides); conditions: AAH 320 g/ha; application during weed generation, submerged conditions
# Outline: (§2)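 Wagner pot, alluvial soil, 4 cm flood; mixed sowing of all species; greenhouse 25° C.–30° C. Emulsifiable formulation, water-diluted to predetermined dose, applied to paddy water at 1–2 leaf stage. Effect rated at 3 wk using the earlier test's scoring criteria.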
# blackgrass [1] = assay: Test Example 4: herbicidal effect by soil treatment (Table 19, symbol J); format: in vivo, blackgrass (Alopecurus myosuroides); conditions: amount of applied herbicide 320 g/ha
# Outline: as §1
# Italian ryegrass [2] = assay: Test Example 5: herbicidal effect by foliage application, plastic box (Table 20, symbol K); format: in vivo, Italian ryegrass (Lolium multiflorum); conditions: foliage application, 320 g/ha, three weeks after application
# Outline: (§3)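 Post-emergence foliar test in sterilized diluvial soil. Compound applied as water-diluted emulsion at a predetermined rate to 14-day-old plants; evaluation at three weeks.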
# chickweed = assay: Test Example 4: herbicidal effect by soil treatment (Table 19, symbol P); format: in vivo, common chickweed (Stellaria media); conditions: amount of applied herbicide 320 g/ha
# Outline: as §1
# blackgrass [3] = assay: Test Example 5: herbicidal effect by foliage application, plastic box (Table 20, symbol J); format: in vivo, blackgrass (Alopecurus myosuroides); conditions: foliage application, 320 g/ha, three weeks after application
# Outline: as §3
# late watergrass [4] = assay: Test Example 1: herbicidal activity, application before weed generation under submerged conditions (Table 16, symbol A); format: in vivo, late watergrass (Echinochloa oryzicola); conditions: amount of applied herbicide 320 g/ha
# Outline: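 Submerged Wagner pots (alluvial soil, 4 cm water) sown with weed seeds and planted with 2.5-leaf rice seedlings; emulsifiable concentrate diluted in water applied to water surface on sowing day. Held in greenhouse at 25-30 °C; injury scored 0-5 by herbicidal rate after three weeks.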
# wild oat = assay: Test Example 4: herbicidal effect by soil treatment (Table 19, symbol I); format: in vivo, wild oat (Avena fatua); conditions: amount of applied herbicide 320 g/ha
# Outline: as §1
# southern crabgrass = assay: Test Example 5: herbicidal effect by foliage application, plastic box (Table 20, symbol F); format: in vivo, southern crabgrass (Digitaria ciliaris); conditions: foliage application, 320 g/ha, three weeks after application
# Outline: as §3
# Italian ryegrass [5] = assay: Test Example 4: herbicidal effect by soil treatment (Table 19, symbol K); format: in vivo, Italian ryegrass (Lolium multiflorum); conditions: amount of applied herbicide 320 g/ha
# Outline: as §1
# late watergrass [6] = assay: Test Example 2: herbicidal activity, application during weed generation under submerged conditions (Table 17, symbol A); format: in vivo, late watergrass (Echinochloa oryzicola); conditions: AAH 320 g/ha; application during weed generation, submerged conditions
# Outline: as §2
# velvetleaf = assay: Test Example 5: herbicidal effect by foliage application, plastic box (Table 20, symbol M); format: in vivo, velvetleaf (Abutilon theophrasti); conditions: foliage application, 320 g/ha, three weeks after application
# Outline: as §3
# oval-leafed pondweed = assay: Test Example 2: herbicidal activity, application during weed generation under submerged conditions (Table 17, symbol C); format: in vivo, oval-leafed pondweed (Monochoria vaginalis); conditions: AAH 320 g/ha; application during weed generation, submerged conditions
# Outline: as §2
# persian speedwell = assay: Test Example 4: herbicidal effect by soil treatment (Table 19, symbol R); format: in vivo, Persian speedwell (Veronica persica); conditions: amount of applied herbicide 320 g/ha
# Outline: as §1
Compound,"O: lambsquarters, herbicidal effect grade (lambsquarters)","herbicidal effect rating, B: Japanese bulrush (Japanese bulrush)","J: blackgrass, herbicidal effect grade (blackgrass [1])",herbicidal effect on Italian ryegrass (K) (Italian ryegrass [2]),"P: chickweed, herbicidal effect grade (chickweed)",herbicidal effect on blackgrass (J) (blackgrass [3]),"Herbicidal effect, A: late watergrass (late watergrass [4])","I: wild oat, herbicidal effect grade (wild oat)",herbicidal effect on southern crabgrass (F) (southern crabgrass),"K: Italian ryegrass, herbicidal effect grade (Italian ryegrass [5])","herbicidal effect rating, A: late watergrass (late watergrass [6])",herbicidal effect on velvetleaf (M) (velvetleaf),"herbicidal effect rating, C: oval-leafed pondweed (oval-leafed pondweed)","R: persian speedwell, herbicidal effect grade (persian speedwell)"
COc1ccccc1-c1sc2c(Br)c(OC)ccc2c1-c1c(O)c(C)nn(C)c1=O [7-002],4 (Herbicidal rate of 70% or more and less than 90%),2 (Herbicidal rate of 20% or more and less than 40%),0 (Herbicidal rate of 5% or less (almost no effect)),5 (Herbicidal rate of 90% or more (almost completely withered)),3 (Herbicidal rate of 40% or more and less than 70%),0 (Herbicidal rate of 5% or less (almost no effect)),3 (Herbicidal rate of 40% or more and less than 70%),0 (Herbicidal rate of 5% or less (almost no effect)),0 (Herbicidal rate of 5% or less (almost no effect)),0 (Herbicidal rate of 5% or less (almost no effect)),3 (Herbicidal rate of 40% or more and less than 70%),4 (Herbicidal rate of 70% or more and less than 90%),2 (Herbicidal rate of 20% or more and less than 40%),3 (Herbicidal rate of 40% or more and less than 70%)
CCCOc1ccc(-c2oc3ccccc3c2-c2c(O)c(C)nn(C)c2=O)cc1 [8-003],3 (Herbicidal rate of 40% or more and less than 70%),3 (Herbicidal rate of 40% or more and less than 70%),1 (Herbicidal rate of 5% or more and less than 20%),4 (Herbicidal rate of 70% or more and less than 90%),1 (Herbicidal rate of 5% or more and less than 20%),4 (Herbicidal rate of 70% or more and less than 90%),5 (Herbicidal rate of 90% or more (almost completely withered)),0 (Herbicidal rate of 5% or less (almost no effect)),2 (Herbicidal rate of 20% or more and less than 40%),4 (Herbicidal rate of 70% or more and less than 90%),4 (Herbicidal rate of 70% or more and less than 90%),5 (Herbicidal rate of 90% or more (almost completely withered)),3 (Herbicidal rate of 40% or more and less than 70%),4 (Herbicidal rate of 70% or more and less than 90%)
C=CCOc1ccc(-c2oc3ccccc3c2-c2c(O)c(C)nn(C)c2=O)cc1 [8-004],2 (Herbicidal rate of 20% or more and less than 40%),3 (Herbicidal rate of 40% or more and less than 70%),0 (Herbicidal rate of 5% or less (almost no effect)),4 (Herbicidal rate of 70% or more and less than 90%),1 (Herbicidal rate of 5% or more and less than 20%),3 (Herbicidal rate of 40% or more and less than 70%),5 (Herbicidal rate of 90% or more (almost completely withered)),0 (Herbicidal rate of 5% or less (almost no effect)),4 (Herbicidal rate of 70% or more and less than 90%),4 (Herbicidal rate of 70% or more and less than 90%),3 (Herbicidal rate of 40% or more and less than 70%),2 (Herbicidal rate of 20% or more and less than 40%),3 (Herbicidal rate of 40% or more and less than 70%),3 (Herbicidal rate of 40% or more and less than 70%)

# — patent US20230085307A1, “PYRIDAZINONE COMPOUND AND HERBICIDE” (NISSAN CHEMICAL CORPORATION, priority 2019, published 2023)
